Data: US6552062B1, “Indazole derivatives with 5-HT2 receptor activity” (Vernalis Research Limited, priority 1998, dated 2003)
pEC50, pKi: −log10 of the molar value. Counter-ions that a name gives are not always drawn.

Experiments:
human 5-HT2A receptors = biological target: T1, human 5-HT2A receptors (Homo sapiens, UniProt P28223); assay: Functional activity, FLIPR calcium assay, CHO cells expressing human 5-HT2A; assay type: cell-based; conditions: for pEC50: CHO cells, FLIPR, Fluo-3-AM, read-out: h5-HT2A EC50; for h5-HT2A Relative Efficacy (%): maximum fluorescent signal relative to 10 μM 5-HT (defined as 100%)
T1 construct: expressed in transfected cells; host or cells: CHO cells
Experimental: (§1) The functional activity of compounds of formula (I) was assayed using a Fluorimetric Imaging Plate reader (FLIPR). CHO cells expressing the human 5-HT2C or human 5-HT2A receptors were counted and plated into standard 96 well microtitre plates on the day before testing to give a confluent monolayer. The cells were then dye loaded with the calcium sensitive dye, Fluo-3-AM. Unincorporated dye was removed using an automated cell washer to leave a total volume of 100 μL/well of assay buffer (Hanks balanced salt solution containing 20 mM Hepes and 2.5 mM probenecid). The drug (dissolved in 50 μL of the assay buffer) was added at a rate of 70 μL/sec to each well of the FLIPR 96 well plate during fluorescence measurements. The measurements were taken at 1 sec intervals and the maximum fluorescent signal was measured (approx 10-15 secs after drug addition) and compared with the response produced by 10 μM 5-HT (defined as 100%) to which it was expressed as a percentage response (relative efficacy). Dose response curves were constructed using Graphpad Prism (Graph Software Inc.).

human 5-HT2C [1] = biological target: T2, human 5-HT2C (Homo sapiens, UniProt P28335); assay: Functional activity, FLIPR calcium assay, CHO cells expressing human 5-HT2C; assay type: cell-based; set-up: expressed in transfected cells; host or cells: CHO cells; conditions: for pEC50: CHO cells, FLIPR, Fluo-3-AM, read-out: h5-HT2C EC50; for Emax: CHO, maximum fluorescent signal relative to 10 μM 5-HT (defined as 100%), read-out: h5-HT2C Relative Efficacy (%)
T2 sequence (P28335 33-458): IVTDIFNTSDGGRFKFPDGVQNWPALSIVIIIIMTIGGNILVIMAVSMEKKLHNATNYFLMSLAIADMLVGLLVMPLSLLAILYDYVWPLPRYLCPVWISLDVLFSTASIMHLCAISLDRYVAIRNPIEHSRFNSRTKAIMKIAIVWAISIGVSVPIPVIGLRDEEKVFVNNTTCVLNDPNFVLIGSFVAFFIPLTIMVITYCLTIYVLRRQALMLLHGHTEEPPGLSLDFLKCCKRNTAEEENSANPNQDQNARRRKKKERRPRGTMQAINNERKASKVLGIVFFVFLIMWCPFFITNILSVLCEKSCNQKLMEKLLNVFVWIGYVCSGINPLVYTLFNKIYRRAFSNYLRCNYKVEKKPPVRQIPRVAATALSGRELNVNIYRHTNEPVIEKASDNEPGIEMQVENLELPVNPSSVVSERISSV
Experimental: as §1

human 5-HT2B receptors = biological target: T3, human 5-HT2B receptors (Homo sapiens, UniProt P41595); assay: Binding to 5-HT2B receptor, [3H]-5-HT radioligand, Method (b); conditions: human 5-HT2B receptors in a CHO cell line, read-out: Method (b) Ki (2B)
T3 construct: expressed in transfected cells; host or cells: CHO cell line
Experimental: (§2) The binding of compounds of formula I to serotonin receptors was determined in vitro by standard methods. The preparations were investigated in accordance with the assays given hereinafter.
Method (b): For the binding to the 5-HT2B receptor the 5-HT2B receptors were radiolabeled with [^3H]-5-HT. The affinity of the compounds for human 5-HT2B receptors in a CHO cell line was determined according to the procedure of K. Schmuck, C. Ullmer, P. Engels and H. Lubbert, FEBS Lett., 1994, 342, 85-90.

human 5-HT2C [2] = biological target: T2, human 5-HT2C; assay: Binding to 5-HT2C receptor, [3H]-5-HT radioligand, Method (a); set-up: expressed in transfected cells; host or cells: CHO cell line; conditions: 5-HT2C receptors in a CHO cell line, read-out: Method (a) Ki (2C)
Experimental: as §2
Method (a): For the binding to the 5-HT2C receptor the 5-HT2C receptors were radiolabeled with [^3H]-5-HT. The affinity of the compounds for 5-HT2C receptors in a CHO cell line was determined according to the procedure of D. Hoyer, G. Engel and H. O. Kalkman, European J Pharmacol., 1985, 118, 13-23.

T1 sequence (P28223 whole entry): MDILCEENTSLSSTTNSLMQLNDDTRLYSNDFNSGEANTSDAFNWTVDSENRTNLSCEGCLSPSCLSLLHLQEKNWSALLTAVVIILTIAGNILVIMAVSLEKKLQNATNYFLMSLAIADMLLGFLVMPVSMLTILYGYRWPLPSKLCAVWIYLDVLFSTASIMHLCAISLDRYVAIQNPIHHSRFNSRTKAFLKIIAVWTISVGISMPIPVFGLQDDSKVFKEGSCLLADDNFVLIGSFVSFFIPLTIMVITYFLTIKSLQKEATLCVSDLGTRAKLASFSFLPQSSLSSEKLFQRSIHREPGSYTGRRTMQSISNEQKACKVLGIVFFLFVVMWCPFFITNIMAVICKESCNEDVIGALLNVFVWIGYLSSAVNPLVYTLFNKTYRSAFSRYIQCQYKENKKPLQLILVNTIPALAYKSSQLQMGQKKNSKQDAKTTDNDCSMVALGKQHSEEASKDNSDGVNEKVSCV
T3 sequence (P41595 whole entry): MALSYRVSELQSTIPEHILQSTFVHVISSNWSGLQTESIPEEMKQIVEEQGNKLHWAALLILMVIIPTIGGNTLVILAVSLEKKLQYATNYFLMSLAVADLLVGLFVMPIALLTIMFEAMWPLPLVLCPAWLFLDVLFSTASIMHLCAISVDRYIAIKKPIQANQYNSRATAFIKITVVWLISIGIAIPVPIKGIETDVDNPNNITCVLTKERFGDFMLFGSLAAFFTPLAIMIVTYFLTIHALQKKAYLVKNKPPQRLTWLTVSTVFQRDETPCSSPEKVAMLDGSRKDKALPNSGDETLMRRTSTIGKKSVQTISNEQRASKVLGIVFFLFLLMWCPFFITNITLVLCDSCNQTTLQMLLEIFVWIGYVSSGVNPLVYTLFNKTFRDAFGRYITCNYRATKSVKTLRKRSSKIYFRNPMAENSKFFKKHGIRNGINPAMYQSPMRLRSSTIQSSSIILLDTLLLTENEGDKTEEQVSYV

Row | Compound | pEC50 (human 5-HT2A receptors) | h5-HT2A Relative Efficacy (%) (human 5-HT2A receptors) | pEC50 (human 5-HT2C [1]) | Emax (human 5-HT2C [1]) [%] | melting point [°C] | pKi (human 5-HT2B receptors) | pKi (human 5-HT2C [2])
1 | CCc1nn(C[C@H](C)N)c2cc(F)ccc12 [Example 6, (S)-1-(3-Ethyl-6-fluoroindazol-1-yl)-2-propylamine Fumarate] | 6.54 | 32 | 7.28 | 47 | – | – | –
2 | CCc1nn(C[C@H](C)N)c2cc(Br)ccc12 [Example 7, (S)-1-(6-Bromo-3-ethylindazol-1-yl)-2-propylamine Fumarate] | 6.13 | 39 | 7.06 | 69 | – | – | –
3 | Cc1nn(C[C@H](C)N)c2cc(Cl)c(F)cc12 (as salt: fumarate) [Example 4, (S)-1-(6-Chloro-5-fluoro-3-methylindazol-1-yl)-2-propylamine Fumarate] | – | – | – | – | 158 to 159 | – | –
4 | Cc1nn(CC(C)N)c2ccccc12 (racemic) [Example 1, (RS)-1-(3-Methylindazol-1-yl)-2-propylamine Fumarate] | – | – | 6.02 | 55 | – | 6.62 | 6.37
5 | COc1ccc2c(C)nn(C[C@H](C)N)c2c1 (as salt: fumarate) [Example 2, (S)-1-(6-Methoxy-3-methylindazol-1-yl)-2-propylamine Fumarate] | – | – | – | – | 180 to 181 | – | –
6 | Cc1nn(C[C@H](C)N)c2cc(Cl)c(F)cc12 [Example 4, (S)-1-(6-Chloro-5-fluoro-3-methylindazol-1-yl)-2-propylamine Fumarate] | 6.86 | 65 | 7.32 | 76 | – | 7.59 | 7.12
7 | CCc1nn(C[C@H](C)N)c2cc(SC)ccc12 [Example 8, (S)-1-(3-Ethyl-6-methylthioindazol-1-yl)-2-propylamine Fumarate] | 6.55 | 48 | 8.10 | 81 | – | 7.33 | 7.43
8 | CCc1nn(C[C@H](C)N)c2cc(C(F)(F)F)ccc12 [Example 5, (S)-1-(3-Ethyl-6-trifluoromethylindazol-1-yl)-2-propylamine Fumarate] | – | – | 6.06 | 73 | – | – | –
9 | Cc1nn(C[C@H](C)N)c2cc(F)c(F)cc12 [Example 3, (S)-1-(5,6-Difluoro-3-methylindazol-1-yl)-2-propylamine Fumarate] | 6.82 | 50 | 7.08 | 67 | – | 7.20 | 6.85
10 | CCc1nn(C[C@H](C)N)c2cc(SC)ccc12 (as salt: fumarate) [Example 8, (S)-1-(3-Ethyl-6-methylthioindazol-1-yl)-2-propylamine Fumarate] | – | – | – | – | 147 to 149 | – | –
11 | CCc1nn(C[C@H](C)N)c2cc(F)ccc12 (as salt: fumarate) [Example 6, (S)-1-(3-Ethyl-6-fluoroindazol-1-yl)-2-propylamine Fumarate] | – | – | – | – | 143 to 145 | – | –
12 | Cc1nn(C[C@H](C)N)c2cc(F)c(F)cc12 (as salt: fumarate) [Example 3, (S)-1-(5,6-Difluoro-3-methylindazol-1-yl)-2-propylamine Fumarate] | – | – | – | – | 160 to 161 | – | –
13 | CCc1nn(C[C@H](C)N)c2cc(Br)ccc12 (as salt: fumarate) [Example 7, (S)-1-(6-Bromo-3-ethylindazol-1-yl)-2-propylamine Fumarate] | – | – | – | – | 148 to 150 | – | –
14 | COc1ccc2c(C)nn(C[C@H](C)N)c2c1 [Example 2, (S)-1-(6-Methoxy-3-methylindazol-1-yl)-2-propylamine Fumarate] | 6.97 | 59 | 7.36 | 74 | – | 6.87 | 6.68
